In patent US20260274814A1, “THIENYL COMPOUNDS FOR THE TREATMENT OF A CENTRAL NERVOUS SYSTEM DISEASE OR DISORDER” (Coreterra Therapeutics, Inc., priority 2023, published 2026):
Counter-ions that a name gives are not always drawn. Like-named read-outs stand apart in the source and are kept apart here.

System: mice
Test: Neuropharmacological Assay (SmartCube): automated behavioral signature of compound-treated mice compared with a database of reference drug classes
Type: in vivo
Conditions: for MED / minimal effective dose / MED (minimal effective dose): i.p., that dose is shown; for minimal effective dose: Mus musculus, ip
Outline: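 Probabilities of matching each neuropharmacological class (e.g. anxiolytic, antidepressant) come from algorithmic analysis of digitally recorded behaviour, reported for 3.0 mg/kg. Compounds were given intraperitoneally in a Pharmasolve/PEG/propylene glycol vehicle 15 min pre-test. Minimal effective dose is the lowest dose reaching 45% or more total activity.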

[1] = SmartCube class probability, 3.0 mg/kg i.p., 15 min before test
[2] = SmartCube class probability, 3.0 mg/kg i.p., 15 min before test, hydrochloride, 3 mg/kg
[3] = minimal effective dose: dose having 45% or more total activity in SmartCube, if only one dose tested, read-out: MED
[4] = dose having 45% or more total activity in SmartCube, if only one dose was tested, hydrochloride
[5] = probability that activity matches this class of agents, 3.0 mg/kg i.p., 15 min before test
[6] = probability that activity matches this class of agents, 3.0 mg/kg i.p., 15 min before test, hydrochloride, 3 mg/kg
[7] = minimal effective dose: dose having 45% or more total activity in SmartCube, if only one dose was tested, read-out: MED
[8] = SmartCube probability class, 3.0 mg/kg dose, i.p. 15 min before the behavioral test
[9] = dose having 45% or more total activity in SmartCube, if only one dose was tested, read-out: MED (minimal effective dose)

`CNC1(C)CCc2sccc2C1` (single isomer, unassigned) [Compound 179, N, 5-dimethyl-6,7-dihydro-4H-benzothiophen-5-amine hydrochloride] was tested, and the AG [1] was “ND (^ <4%)”, the AP [1] was “ND (^ <4%)” and the AX [1] was “ND (^ <4%)”. The CE [1] was “ND (^ <4%)”, the HL [1] was “ND (^ <4%)” and the MS [1] was “ND (^ <4%)”. For the same compound, the SH [1] was “ND (^ <4%)”, the UK [1] was “ND (^ <4%)” and the AD [2] was “+++ (≥49%)”. The AN [2] was “+ (≥4%)”, the PS [2] was “+ (≥4%)” and the MED (minimal effective dose: dose having 45% or more total activity in SmartCube, if only one dose tested, hydrochloride) was 3 mpk.

With `NC1CCc2scc(C3CC3)c2C1` (single isomer, unassigned) [Compound 277, 3-cyclopropyl-4,5,6,7-tetrahydrobenzothiophen-5-amine hydrochloride] the minimal effective dose [3] was over 3 mg/kg, the AD [1] was “ND (^ <4%)” and the AG [1] was “ND (^ <4%)”. The AN [1] was “ND (^ <4%)”, the AP [1] was “ND (^ <4%)” and the AX [1] was “ND (^ <4%)”. For the same compound, the CE [1] was “ND (^ <4%)”, the HL [1] was “ND (^ <4%)” and the MS [1] was “ND (^ <4%)”. The PS [1] was “ND (^ <4%)”, the SH [1] was “ND (^ <4%)” and the UK [1] was “+ (≥4%)”.

In the case of `CNC1CCc2scc(C)c2C1.Cl` (single isomer, unassigned) [Compound 70, N, 3-dimethyl-4,5,6,7-tetrahydrobenzothiophen-5-amine hydrochloride], the “MED (minimal effective dose)” value [4] is reported as 1 mpk, the AD [5] is reported as “ND (^ <4%)” and the AG [5] is reported as “ND (^ <4%)”. For the same compound, the AN [5] was “ND (^ <4%)”, the CE [5] was “ND (^ <4%)” and the HL [5] was “ND (^ <4%)”. For the same compound, the MS [5] was “ND (^ <4%)”, the PS [5] was “ND (^ <4%)” and the SH [5] was “ND (^ <4%)”. The AP [6] was “+++ (≥49%)”, the AX [6] was “+ (≥4%)” and the UK [6] was “ND (^ <4%)”.

`CNC1COc2csc(C(F)(F)F)c2C1` (single isomer, unassigned) [Compound 258, N-methyl-5-(trifluoromethyl)-3,4-dihydro-2H-thieno[3,4-b]pyran-3-amine hydrochloride] was tested, and the minimal effective dose [3] was over 3 mg/kg, the AD [1] was “ND (^ <4%)” and the AG [1] was “ND (^ <4%)”. For the same compound, the AN [1] was “ND (^ <4%)”, the AP [1] was “ND (^ <4%)” and the AX [1] was “ND (^ <4%)”. For the same compound, the CE [1] was “ND (^ <4%)”, the HL [1] was “ND (^ <4%)” and the MS [1] was “ND (^ <4%)”. The PS [1] was “ND (^ <4%)”, the SH [1] was “ND (^ <4%)” and the UK [2] was “+ (≥4%)”.

`CNC1(C)Cc2ccsc2C1` (stereo not drawn) [Compound 328, N, 5-dimethyl-5,6-dihydro-4H-cyclopenta[b]thiophen-5-amine hydrochloride] was tested, and the minimal effective dose [7] was 3 mg/kg, the AD [8] was “++ (≥24%)” and the AG [8] was “ND (^ <4%)”. For the same compound, the AN [8] was “ND (^ <4%)”, the AP [8] was “ND (^ <4%)” and the AX [8] was “+ (≥4%)”. For the same compound, the CE [8] was “ND (^ <4%)”, the HL [8] was “+ (≥4%)” and the MS [8] was “ND (^ <4%)”. For the same compound, the PS [8] was “++ (≥24%)”, the SH [8] was “ND (^ <4%)” and the UK [8] was “+ (≥4%)”.

In the case of `NC1COc2ccsc2C1` (single isomer, unassigned) [Compound 135, 6,7-dihydro-5H-thieno[3,2-b]pyran-6-amine hydrochloride], the minimal effective dose [9] is reported as 3 mg/kg, the AD [5] is reported as “ND (^ <4%)” and the AG [5] is reported as “ND (^ <4%)”. For the same compound, the AN [5] was “ND (^ <4%)”, the AX [5] was “ND (^ <4%)” and the CE [5] was “ND (^ <4%)”. The HL [5] was “ND (^ <4%)”, the MS [5] was “ND (^ <4%)” and the PS [5] was “ND (^ <4%)”. For the same compound, the AP [6] was “+ (≥4%)”, the SH [6] was “++ (≥24%)” and the UK [6] was “ND (^ <4%)”.

`CN(C)C1CCc2ccsc2C1.Cl` (single isomer, unassigned) [Compound 16, N,N-dimethyl-4,5,6,7-tetrahydrobenzothiophen-6-amine hydrochloride] was tested, and the “MED (minimal effective dose)” value [4] was 1.0 mpk, the AD [5] was “ND (^ <4%)” and the AG [5] was “ND (^ <4%)”. For the same compound, the AN [5] was “ND (^ <4%)”, the HL [5] was “ND (^ <4%)” and the MS [5] was “ND (^ <4%)”. For the same compound, the PS [5] was “ND (^ <4%)”, the SH [5] was “ND (^ <4%)” and the UK [5] was “ND (^ <4%)”. For the same compound, the AP [6] was “ND (^ <4%)”, the AX [6] was “++++ (≥74%)” and the CE [6] was “ND (^ <4%)”.

In the case of `CNC1COc2scc(C(F)(F)F)c2C1` (single isomer, unassigned) [Compound 290, N-methyl-5-(trifluoromethyl)-3,4-dihydro-2H-thieno[2,3-b]pyran-3-amine hydrochloride], the AD [8] is reported as “ND (^ <4%)”, the UK [8] is reported as “+ (≥4%)” and the MED (minimal effective dose: dose having 45% or more total activity in SmartCube, if only one dose was tested) is reported as over 3 mpk.

For `CNC1(C)CCc2cc(C(F)(F)F)sc2C1.Cl` (single isomer, unassigned) [Compound 246, N, 6-dimethyl-2-(trifluoromethyl)-5,7-dihydro-4H-benzothiophen-6-amine hydrochloride], the AG [1] was “ND (^ <4%)”, the AN [1] was “ND (^ <4%)” and the AX [1] was “ND (^ <4%)”. The CE [1] was “ND (^ <4%)”, the HL [1] was “ND (^ <4%)” and the MS [1] was “ND (^ <4%)”. The PS [1] was “ND (^ <4%)”, the SH [1] was “ND (^ <4%)” and the AD [2] was “+ (≥4%)”. The AP [2] was “++ (≥24%)”, the UK [2] was “++ (≥24%)” and the MED (minimal effective dose: dose having 45% or more total activity in SmartCube, if only one dose tested) was 3 mpk.

`CNC1CCc2c(csc2C)C1` (single isomer, unassigned) [Compound 33, N, 1-dimethyl-4,5,6,7-tetrahydro-2-benzothiophen-5-amine hydrochloride] was tested, and the “MED (minimal effective dose)” value [4] was 0.3 mpk, the AD [5] was “+++ (≥49%)” and the AG [5] was “ND (^ <4%)”. For the same compound, the AN [5] was “ND (^ <4%)”, the CE [5] was “ND (^ <4%)” and the HL [5] was “ND (^ <4%)”. For the same compound, the MS [5] was “ND (^ <4%)”, the PS [5] was “ND (^ <4%)” and the SH [5] was “ND (^ <4%)”. The UK [5] was “ND (^ <4%)”, the AP [6] was “++ (≥24%)” and the AX [6] was “ND (^ <4%)”.

In the case of `CNC1CCc2cc(F)sc2C1` (racemic) [Compound 79, 2-fluoro-N-methyl-4,5,6,7-tetrahydrobenzothiophen-6-amine hydrochloride], the minimal effective dose [9] is reported as 1 mg/kg, the AD [5] is reported as “++ (≥24%)” and the AG [5] is reported as “ND (^ <4%)”. The AN [5] was “ND (^ <4%)”, the AP [5] was “+ (≥4%)” and the AX [5] was “++ (≥24%)”. The CE [5] was “ND (^ <4%)”, the HL [5] was “ND (^ <4%)” and the MS [5] was “ND (^ <4%)”. For the same compound, the PS [5] was “ND (^ <4%)”, the SH [5] was “ND (^ <4%)” and the UK [5] was “ND (^ <4%)”.

`NC1COc2ccsc2C1` (single isomer, unassigned) [Compound 136, 6,7-dihydro-5H-thieno[3,2-b]pyran-6-amine hydrochloride] was tested, and the “MED (minimal effective dose)” value [4] was over 3 mpk, the AD [5] was “ND (^ <4%)” and the AG [5] was “ND (^ <4%)”. For the same compound, the AN [5] was “ND (^ <4%)”, the AX [5] was “ND (^ <4%)” and the CE [5] was “ND (^ <4%)”. The HL [5] was “ND (^ <4%)”, the MS [5] was “ND (^ <4%)” and the PS [5] was “ND (^ <4%)”. The AP [6] was “ND (^ <4%)”, the SH [6] was “ND (^ <4%)” and the UK [6] was “+ (≥4%)”.

In the case of `CNC1CCc2scc(C3CCC3)c2C1` (single isomer, unassigned) [Compound 267, 3-cyclobutyl-N-methyl-4,5,6,7-tetrahydrobenzothiophen-5-amine hydrochloride], the minimal effective dose [3] is reported as over 3 mg/kg, the AD [1] is reported as “ND (^ <4%)” and the AG [1] is reported as “ND (^ <4%)”. For the same compound, the AN [1] was “ND (^ <4%)”, the AP [1] was “ND (^ <4%)” and the AX [1] was “ND (^ <4%)”. For the same compound, the CE [1] was “ND (^ <4%)”, the HL [1] was “ND (^ <4%)” and the MS [1] was “ND (^ <4%)”. The PS [1] was “ND (^ <4%)”, the SH [1] was “ND (^ <4%)” and the UK [2] was “+ (≥4%)”.

With `CCC1(NC)CCc2sccc2C1` (single isomer, unassigned) [Compound 291, 5-ethyl-N-methyl-6,7-dihydro-4H-benzothiophen-5-amine hydrochloride] the minimal effective dose [7] was over 3 mg/kg, the AD [8] was “ND (^ <4%)” and the AG [8] was “ND (^ <4%)”. For the same compound, the AN [8] was “ND (^ <4%)”, the AP [8] was “ND (^ <4%)” and the AX [8] was “ND (^ <4%)”. The CE [8] was “ND (^ <4%)”, the HL [8] was “ND (^ <4%)” and the MS [8] was “ND (^ <4%)”. The PS [8] was “ND (^ <4%)”, the SH [8] was “ND (^ <4%)” and the UK (SmartCube probability class, 3.0 mg/kg dose, i.p. 15 min before the behavioral test, hydrochloride, 3 mg/kg) was “+ (≥4%)”.
